For experiment [1], the system named is OsHDAC1 transcription product. Nature of the experiment: Effect of ABA treatment on expression of OsHDAC1 transcription product in leaves of Ai::OsHDAC1 rice plant. To be noted: 20 μM ABA, MS medium. The experiment is classed as cell-based. The method, then: While leaves of Ai::OsHDAC1 rice plant produced by above Example 5 was incubated in MS medium with or without 20 μM ABA, a total RNA was isolated from leaves at regular intervals to examine the expression level of OsHDAC1 transcription product. As the result, it was identified that the expression of the transcription product reaches at the maximum level one hour after ABA treatment and rapidly decreases after 6 hours. Then, callus cells, leaves and roots of rice plant were incubated in MS medium with or without 20 μM ABA for one hour, and a total RNA was extracted. […] Further, the same result could be confirmed from Western blot analysis of OsHDAC1 protein.

The next experiment has as its system untransformed rice plant. Nature of the experiment: Phenotype and growth in MS medium with 20 μM ABA, untransformed rice plant. To be noted: 2 weeks. The class given is in vivo. The method, then:
(§1) In order to investigate the effect of overexpression of OsHDAC1 on the phenotype and growth of Ai::OsHDAC1 rice plant, Ai::OsHDAC1 rice plant was incubated as the first generation and then, young seedlings or calluses at the second generation were transferred to MS medium with or without 20 μM ABA and incubated for 2 weeks. After incubation, the whole shape of rice plant, and leaves, collars and roots were observed. As the control group, untransformed rice plant was also observed. FIGS. 6a, 6b, 6c and 6d are photographs showing the growth and morphological change of Ai::OsHDAC1 rice plant, the change in the growth of leaves, the change of collars and the change of roots, respectively. In each drawing, NT denotes untransformed rice plant and lanes 2, 3 and 4 in FIGS. 6b, 6c and 6d denote respective individuals of transformed Ai::OsHDAC1 rice plant.

The next experiment concerns Ai::OsHDAC1 rice plant. Nature of the experiment: Phenotype and growth in MS medium with 20 μM ABA, Ai::OsHDAC1 rice plant. The class given is in vivo. To be noted: 2 weeks. The method, then: as §1
For the next experiment, the system named is histone deacetylase. The experiment can be described thus: Effect of tricostatin A (TSA) treatment on histone H4 acetylation, immunoblot of rice callus cells. To be noted: 1 μM TSA with 20 μM ABA, 1 to 6 hours. The class given is cell-based. The method, then:
Rice callus cells, leaves and roots were incubated in MS medium with (+) or without (−) 20 μM ABA for one hour, transferred to MS medium containing 20 μM ABA and 1 μM TSA, incubated for 1 to 6 hours and then subjected to TSA treatment. Next, about 0.1 g of rice tissues was pulverized, homogenized with a buffer solution containing 50 mM Tris-HCl (pH 8.0), 150 mM NaCl, 10% glycerol, 0.5% Triton X-100, 2 mM phenylmethanesulfonyl fluoride, 1 μg/ml aprotinine, 1 μg/ml pepstatin and 1 μg/ml leupeptin, and then incubated at 4° C. for one hour. After incubation, the mixed solution was centrifuged at 4° C. for 5 minutes, and the protein concentration was determined using Bradford solution (BioRad, USA). The protein extract was separated from 12% SDS gel, transferred to polyvinylidene difluoride (PVDF) membrane (Immobilon-P, Millipore), and then reacted with mouse HDAC1 (mHDAC1), histone H4 (H4), acetylated histone (AcH4), the secondary antibody wherein primary antibody to acetylated histone H4 (AcH4) (Upstate Biotechnology, USA) is combined with alkaline phosphatase. […] Thus, it was confirmed that the expression of tetra-acetylated histone H4 as reduced in Ai::OsHDAC1 rice plant is increased again by TSA treatment.
A general note: In western blotting, separated proteins are transferred to a membrane and probed.

We go through 2 compounds from patent US20040123348A1, “Method for producing a plant with a high-growth rate” (priority 2002, published 2004).

Molecules are shown by their SMILES.

Turning to `CC1=CC(=O)CC(C)(C)[C@@]1(O)/C=C/C(C)=C\C(=O)O` [ABA, abscisic acid], the “time after ABA treatment at which expression of the transcription product reaches the maximum level” value in experiment [1] is given as “one”. Also, in the experiment with untransformed rice plant, the “growth of untransformed plant in the presence of ABA” value is “inhibition of growth”. For the same compound, the “growth of Ai::OsHDAC1 rice plant in the presence of ABA” value in the experiment with Ai::OsHDAC1 rice plant was “increase of growth”.

Turning to `CC(/C=C/C(=O)NO)=C\[C@@H](C)C(=O)c1ccc(N(C)C)cc1` [TSA, tricostatin A], the “total H4 after TSA treatment” value with histone deacetylase is on record as “substantially not changed”. Further, in the experiment with histone deacetylase (both Ai::OsHDAC1 and untransformed rice plant callus cells), the “expression level of tetra-acetylated histone H4 after TSA treatment” value is reported as “greatly increased”.
